Values of other authors in patent US5990277A, “Semipeptoid farnesyl protein transferase inhibitors and analogs thereof” (Yissum Research Development Company of the Herbrew …, priority 1996, dated 1999).

Experiments:
[1] = system: protein farnesyl transferase in cells; conditions: cited from earlier work
tumors in nude mice = conditions: cited from earlier work
[2] = system: human adenocarcinoma cell line PSN-1; conditions: PSN-1 cells, altered K-ras and p53 genes; cited from earlier work
[3] = system: RatI cells transformed with viral H-ras; conditions: cited from earlier work
[4] = molecular target: farnesyl protein transferase (Homo sapiens, UniProt P49354+P49356); conditions: literature; cited from earlier work
met18b-2 cells = conditions: cited from earlier work
[5] = system: MMTV-v-Ha-ras transgenic mice bearing palpable tumors; conditions: daily administration; cited from earlier work
[6] = system: Ras processing in cells transformed with v-ras; conditions: cited from earlier work
[7] = system: cells transformed by either v-raf or v-mos oncogenes; conditions: cited from earlier work
v-ras-transformed cells = conditions: cited from earlier work

## CC[C@H](C)[C@@H](CO[C@@H](Cc1ccccc1)C(=O)N[C@@H](CCS(C)(=O)=O)C(=O)OC)NC[C@@H](N)CS [L-739,749]
[1]
  inhibitory activity in cells compared to compound L-739,750: superior inhibitory activity
Tumors in nude mice
  growth of tumors: suppress the growth of tumors
[2]
  anchorage-independent growth: inhibit the anchorage-independent growth
[3]
  anchorage-independent growth: suppressing the anchorage-independent growth
[4]
  farnesyl protein transferase inhibitory potency in vitro: moderate inhibitor

## COC(=O)[C@H](CCSC)NC(=O)CN1C(=O)C(N(C)C(=O)[C@@H](N)CS)N=C(c2ccccc2)c2ccccc21 (stereo partly drawn) [BZA-5B]
met18b-2 cells
  inhibitory potency in cells versus parent compound BZA-2B: much more potent inhibitor

## CC[C@H](C)[C@@H](CO[C@@H](Cc1ccccc1)C(=O)N[C@@H](CCS(C)(=O)=O)C(=O)OC(C)C)NC[C@@H](N)CS [L-744,832]
[5]
  tumor response: caused tumor regression
[4]
  farnesyl protein transferase inhibitory potency in vitro: potent and selective inhibitor

## CC[C@H](C)[C@H](NC[C@@H](NC[C@@H](N)CS)[C@@H](C)CC)C(=O)NC1CCOC1=O (stereo partly drawn) [L-731,734, N-{2(S)-[2(R)-amino-3-mercaptopropylamino]-3(S)-methylpentyl}isoleucyl-homoserine lactone]
[6]
  effect on Ras processing in cells: efficiently inhibit Ras processing
[7]
  efficiency of colony transformation: no effect on the efficiency of colony transformation
[4]
  farnesyl protein transferase inhibitory potency in vitro: less potent
v-ras-transformed cells
  colony formation in soft agar: decreasing the ability of v-ras-transformed cells to form colonies
